A short description of the series: preclinical exposure in the VCaP tumor xenograft mouse model. To be noted: CB17/scid, in vivo, oral, 1 mg/kg/day, read-out: AUCinf, minimally efficacious preclinical exposure. How it is done:
Exposure at the 100 mg QD dose (N=6) with mean steady-state Compound A AUC0-24=4,610 ng*hr/mL on Cycle 1 Day 21 achieved the minimally efficacious preclinical exposure associated with tumor growth inhibition in the VCaP tumor xenograft mouse model (AUCinf=3,930 ng*hr/mL at 1 mg/kg/day dose; data not included).

`COc1cc(O[C@H]2C(C)(C)[C@H](NC(=O)c3ccc(N4CCC(CN5CCN(c6ccc(C(=O)N[C@H]7CCC(=O)NC7=O)c(F)c6)CC5)CC4)cc3)C2(C)C)ccc1C#N` [Compound A, 4-(4-((1-(4-(((1R,3R)-3-(4-cyano-3-methoxyphenoxy)-2,2,4,4-tetramethylcyclobutyl)carbamoyl)phenyl)piperidin-4-yl)methyl)piperazin-1-yl)-N—((S)-2,6-dioxopiperidin-3-yl)-2-fluorobenzamide]: the AUC(0-inf) was 3930 ng·h/mL.

The values are drawn from US20240180900A1, “COMPOUNDS AND METHODS FOR THE TARGETED DEGRADATION OF ANDROGEN RECEPTOR” (Arvinas Operations, Inc., priority 2022, published 2024).
